Reference: PMC8145327, “S100P Interacts with p53 while Pentamidine Inhibits This Interaction” (Biomolecules, 2021)

Target: T1, S100P (Homo sapiens, UniProt P25815)
T1 construct: 15N-labeled human S100P (95 amino acid residues)
T1 sequence (P25815 1-95): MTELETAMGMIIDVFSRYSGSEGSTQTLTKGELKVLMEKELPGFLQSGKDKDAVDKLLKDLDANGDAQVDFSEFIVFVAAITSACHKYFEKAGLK
Assay: 1H-15N HSQC NMR titration (chemical shift perturbation)
Format: binding

N=C(N)c1ccc(OCCCCCOc2ccc(C(=N)N)cc2)cc1 [pentamidine]
Kd: 48.7 µM
